Drawing on ChEMBL document CHEMBL1149560, “Discovery of a potent CDK2 inhibitor with a novel binding mode, using virtual screening and initial, structure-guided lead scoping” (Bioorg Med Chem Lett, 2007), this text covers GI50, IC50 and inhibition for twelve compounds.

Test [1] concerns HCT-116. Put plainly: Antiproliferative activity against HCT116 cells by SRB assay after 72 hrs. The format is functional. The settings on record: Homo sapiens, HCT-116, 72 h.
The target of test [2] is Glycogen synthase kinase-3 beta (Homo sapiens, UniProt P49841). Put plainly: Inhibition of GSK3-beta.
The target of test [3] is Cyclin-dependent kinase 2 (Homo sapiens, UniProt P24941). In words: Inhibition of CDK2.
Test [4] addresses T1, Serine/threonine-protein kinase Chk1 (Homo sapiens) (UniProt O14757).
T1 sequence (whole entry): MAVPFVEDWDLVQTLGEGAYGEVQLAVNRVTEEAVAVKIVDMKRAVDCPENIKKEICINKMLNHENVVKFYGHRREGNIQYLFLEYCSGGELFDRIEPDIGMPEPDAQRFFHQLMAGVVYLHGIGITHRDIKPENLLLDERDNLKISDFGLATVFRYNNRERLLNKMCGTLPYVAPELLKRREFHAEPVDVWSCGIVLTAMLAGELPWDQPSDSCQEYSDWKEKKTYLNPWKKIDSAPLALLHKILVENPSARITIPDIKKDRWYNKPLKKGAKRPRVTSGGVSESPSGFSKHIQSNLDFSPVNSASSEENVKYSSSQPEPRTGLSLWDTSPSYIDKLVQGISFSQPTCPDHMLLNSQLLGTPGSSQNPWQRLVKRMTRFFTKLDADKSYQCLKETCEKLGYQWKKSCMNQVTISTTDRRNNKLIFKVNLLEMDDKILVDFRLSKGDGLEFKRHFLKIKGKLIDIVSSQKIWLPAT
Put plainly: Inhibition of Chk1 at 50 uM.

The target in test [5] is RAC-alpha serine/threonine-protein kinase (Homo sapiens) (UniProt P31749). Put plainly: Inhibition of AKT at 10 uM.
The nature of test [6]: Inhibition of PKA. Also noted: species or system Homo sapiens.

Glycogen synthase kinase-3 beta, sequence (P49841 whole entry): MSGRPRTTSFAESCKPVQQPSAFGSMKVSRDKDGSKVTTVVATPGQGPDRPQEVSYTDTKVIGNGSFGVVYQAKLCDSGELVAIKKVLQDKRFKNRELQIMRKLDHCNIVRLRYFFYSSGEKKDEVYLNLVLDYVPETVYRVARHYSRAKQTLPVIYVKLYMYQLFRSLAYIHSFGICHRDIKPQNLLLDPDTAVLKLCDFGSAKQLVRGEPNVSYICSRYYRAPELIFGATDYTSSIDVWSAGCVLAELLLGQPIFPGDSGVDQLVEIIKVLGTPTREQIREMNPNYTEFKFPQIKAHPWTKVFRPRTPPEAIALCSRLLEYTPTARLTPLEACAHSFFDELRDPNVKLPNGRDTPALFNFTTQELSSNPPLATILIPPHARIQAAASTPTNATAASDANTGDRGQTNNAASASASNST
RAC-alpha serine/threonine-protein kinase (Homo sapiens), sequence (P31749 whole entry): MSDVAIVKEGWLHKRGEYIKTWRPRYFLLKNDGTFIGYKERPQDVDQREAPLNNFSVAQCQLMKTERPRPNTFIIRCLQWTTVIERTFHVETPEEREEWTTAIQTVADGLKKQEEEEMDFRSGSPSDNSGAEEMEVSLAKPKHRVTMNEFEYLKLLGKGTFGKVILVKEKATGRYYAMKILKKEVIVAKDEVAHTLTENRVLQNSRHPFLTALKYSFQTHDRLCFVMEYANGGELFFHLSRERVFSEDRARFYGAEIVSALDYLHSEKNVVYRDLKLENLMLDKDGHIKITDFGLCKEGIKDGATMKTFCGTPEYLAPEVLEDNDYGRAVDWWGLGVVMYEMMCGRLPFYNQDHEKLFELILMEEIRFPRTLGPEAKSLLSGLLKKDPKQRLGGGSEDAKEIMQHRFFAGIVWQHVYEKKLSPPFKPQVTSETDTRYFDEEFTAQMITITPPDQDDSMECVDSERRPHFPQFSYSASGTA

In general, GI50 refers to the concentration that inhibits growth by half. With `N=C1NC(=O)/C(=C/c2ccc(-c3ccc(C(=O)O)cc3)o2)S1`, in test [1], the GI50 was above 80 µM.

What is called IC50 is the point on the concentration scale where inhibition reaches its midpoint. On to `N=C1NC(=O)/C(=C/c2ccc(-c3ccc(S(N)(=O)=O)c(Cl)c3)o2)S1`, for which the IC50 in test [2] amounted to 0.014 µM; in test [3], 0.57 µM. The compound further registered a concentration for 50% growth inhibition (GI50) in test [1] above 80 µM.

In test [1], `N=C1NC(=O)/C(=C/c2ccc(-c3ccccc3[N+](=O)[O-])o2)S1` displayed a GI50 above 80 µM. Also, the IC50 in test [3] worked out at 19 µM.

Take `CNS(=O)(=O)c1ccc(-c2ccc(/C=C3\SC(=N)NC3=O)o2)cc1`: in test [2], the midpoint of inhibition, the IC50, lay at 0.08 µM. For the same compound, the GI50 in test [1] was above 80 µM.

For `N=C1NC(=O)/C(=C/c2ccc(-c3ccc(S(=O)(=O)N4CCNCC4)cc3)o2)S1`, the GI50 in test [1] was above 80 µM. Besides, the IC50 in test [3] amounted to 2.9 µM.

Take `N=C1NC(=O)/C(=C/c2ccc(-c3ccc(C(N)=O)cc3)o2)S1`: the GI50 in test [1] was above 80 µM. Moreover, in test [3], the IC50 is 9.3 µM.

`C/C(=C1/SC(=N)NC1=O)c1ccc(-c2ccc(S(N)(=O)=O)cc2)o1`: in test [2], the IC50 was 0.43 µM. In test [1], this compound yielded a GI50 above 80 µM.

The compound `N=C1NC(=O)/C(=C/c2ccc(-c3ccc(S(N)(=O)=O)c(C(F)(F)F)c3)o2)S1` came in with an IC50 in test [2] of 0.002 µM. Besides, the GI50 in test [1] was above 80 µM.

For the compound `N=C1NC(=O)/C(=C/c2ccc(-c3ccc(S(=O)(=O)N4CCOCC4)cc3)o2)S1`, the IC50 in test [3] was found to be 150 µM.

As for `CN(C)CCNS(=O)(=O)c1ccc(-c2ccc(/C=C3\SC(=N)NC3=O)o2)cc1`, the results for the IC50 in test [2] and in test [3] were 0.51 µM and 0.57 µM, respectively. The same compound came in with a GI50 in test [1] above 80 µM.

Broadly, the inhibition is the change of the read-out against control, counted positive when it falls. Turning to `N=C1NC(=O)/C(=C/c2ccc(-c3ccc(S(N)(=O)=O)cc3)o2)S1`, the inhibition worked out at 44% in test [4] and 54% in test [5]. Further, the values for the IC50 in test [2] and in test [6] were 0.25 µM and 77 µM, respectively. The same compound returned a GI50 in test [1] above 80 µM.

In the case of `NS(=O)(=O)c1ccc(-c2ccc(/C=C3\SC(=O)NC3=O)o2)cc1`, the GI50 in test [1] was above 80 µM.
